Measured values: patent US8221775B2, “Pyrrolin-2-ylamino compounds for combating animal pests” (BASF SE, priority 2008, dated 2012)

melting point: 130 to 134 °C
Compound: Brc1ccc(C2CCC(NC(Cc3ccccc3)c3ccccc3)=N2)cc1 (stereo not shown)
